US20230093766A1, “COMPOSITIONS AND METHODS FOR COATING BONE GRAFTS” (BOARD OF REGENTS OF THE UNIVERSITY OF NEBRASKA, priority 2020, published 2023)

Assays:
[1] = system: TGF-β-dependent epithelial-mesenchymal transition (EMT); settings: cited from earlier work
fibrosis in lung = settings: mouse model; cited from earlier work
normal cells and tissues = settings: cited from earlier work
Tgfbrl/ALK5 kinase = biological target: T1, Tgfbrl/ALK5 kinase (Homo sapiens, UniProt P36897); settings: cited from earlier work
T1 sequence (P36897 34-503): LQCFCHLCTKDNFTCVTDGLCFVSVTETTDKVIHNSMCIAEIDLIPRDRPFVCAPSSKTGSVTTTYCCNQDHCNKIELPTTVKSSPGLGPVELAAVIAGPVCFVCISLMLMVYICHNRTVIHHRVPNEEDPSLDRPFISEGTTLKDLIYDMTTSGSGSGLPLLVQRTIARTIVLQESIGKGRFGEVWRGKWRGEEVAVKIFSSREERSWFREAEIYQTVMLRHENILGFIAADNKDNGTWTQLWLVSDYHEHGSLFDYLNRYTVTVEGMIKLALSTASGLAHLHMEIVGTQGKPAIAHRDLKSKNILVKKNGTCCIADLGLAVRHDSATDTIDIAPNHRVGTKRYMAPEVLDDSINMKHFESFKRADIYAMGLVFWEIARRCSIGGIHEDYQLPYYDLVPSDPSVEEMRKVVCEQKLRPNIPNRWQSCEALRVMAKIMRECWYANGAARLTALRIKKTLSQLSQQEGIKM

[2] = system: periosteal progenitor cells isolated from autograft periosteum; experiment: Osteogenic differentiation of periosteal progenitor cells, BMP-2 in combination with TGF-β inhibitor; format: cell-based
Experimental: To test the potential reciprocal regulation of both BMP and TGF-β signaling in repair, periosteal progenitor cells were isolated from autograft periosteum (Wang, et al. (2010) Am. J. Pathol., 177:3100-3111; Huang, et al. (2014) Mol. Ther., 22:430-439; Huang, et al. (2014) PLoS One, 9:e100079). The osteogenic differentiation of BMP-2 ([…]) in combination with TGF-β inhibitors was examined. Corilagin (1 μm) potentiated the effects of BMP-2 on osteoblastic differentiation as evidenced by increased alkaline phosphatase (ALP) staining and enhanced expression of ALP and osterix (Osx) in 10-day cultures (FIG. 7).

BMP type I receptor ALK3 = BMP type I receptor ALK3 (Homo sapiens, UniProt P36894); settings: cited from earlier work
BMP type I receptor ALK6 = BMP type I receptor ALK6 (Homo sapiens, UniProt O00238); settings: cited from earlier work
BMP type I receptor ALK2 = biological target: T2, BMP type I receptor ALK2 (Homo sapiens, UniProt Q04771); settings: cited from earlier work
T2 sequence (Q04771 21-509): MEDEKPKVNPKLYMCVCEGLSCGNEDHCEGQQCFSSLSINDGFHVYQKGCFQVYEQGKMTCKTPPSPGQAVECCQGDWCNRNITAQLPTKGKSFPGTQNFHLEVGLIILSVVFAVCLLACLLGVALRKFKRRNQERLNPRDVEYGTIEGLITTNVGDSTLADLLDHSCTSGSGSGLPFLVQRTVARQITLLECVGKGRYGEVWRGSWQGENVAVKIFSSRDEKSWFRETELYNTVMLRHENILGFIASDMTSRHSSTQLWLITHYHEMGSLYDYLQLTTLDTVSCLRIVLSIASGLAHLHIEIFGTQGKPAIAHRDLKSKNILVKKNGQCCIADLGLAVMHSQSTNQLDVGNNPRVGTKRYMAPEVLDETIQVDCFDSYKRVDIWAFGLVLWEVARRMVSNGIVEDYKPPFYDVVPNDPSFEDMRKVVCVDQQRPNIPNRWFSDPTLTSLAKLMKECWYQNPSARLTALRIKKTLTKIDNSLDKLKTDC

receptors of BMPs = settings: cited from earlier work
[3] = BMP-2 peptide loading and in vitro release from electrospray-coated bone allografts; format: physicochemical; settings: from PLGA 50:50 coated allograft, during the first 4 weeks
Experimental: For quantification of peptide loading and release kinetics, 5 mg FITC labeled BMP-2 peptide was dispersed in 5% (w/v) of PLGA in DCM in glass vials and used for electrospray-mediated allograft coating. The amount of BMP-2 peptide loaded per graft was calculated from the difference in the weights of the bone samples before and after electrospray coating as well as accounting for the polymer:peptide ratio of 50:1 (Boda, et al. (2019) Acta Biomater., 85:282-93). The duration of the electrospray coating was adjusted to achieve an increase of 2-3 mg in the weights of the electrospray coated bone samples as compared to the corresponding uncoated ones. The FITC-labeled peptide release from the bone allograft was recorded by measuring the fluorescence intensities of the buffer aliquots at regular intervals using excitation and emission filters of 485 and 528 nm, respectively.
Similarly, to measure the peptide loading and release kinetics from PCL-gelatin coated allografts, the PCL-gelatin HFIP solution containing 5 mg FITC labeled BMP-2 peptide was used for coating. PCL-Gelatin (2.5 wt % each) and 5 mg of BMP-2 peptide were mixed by ultrasonication. […] The peptide release from the PCL-gelatin bone allograft was recorded by measuring the fluorescence intensities of the buffer aliquots at regular intervals (Boda, et al. (2019) Acta Biomater., 85:282-93). […]

[4] = Corilagin (1 μm) with BMP-2 (50 μg/ml), 10-day cultures

BMP type I receptor ALK3, sequence (P36894 24-532): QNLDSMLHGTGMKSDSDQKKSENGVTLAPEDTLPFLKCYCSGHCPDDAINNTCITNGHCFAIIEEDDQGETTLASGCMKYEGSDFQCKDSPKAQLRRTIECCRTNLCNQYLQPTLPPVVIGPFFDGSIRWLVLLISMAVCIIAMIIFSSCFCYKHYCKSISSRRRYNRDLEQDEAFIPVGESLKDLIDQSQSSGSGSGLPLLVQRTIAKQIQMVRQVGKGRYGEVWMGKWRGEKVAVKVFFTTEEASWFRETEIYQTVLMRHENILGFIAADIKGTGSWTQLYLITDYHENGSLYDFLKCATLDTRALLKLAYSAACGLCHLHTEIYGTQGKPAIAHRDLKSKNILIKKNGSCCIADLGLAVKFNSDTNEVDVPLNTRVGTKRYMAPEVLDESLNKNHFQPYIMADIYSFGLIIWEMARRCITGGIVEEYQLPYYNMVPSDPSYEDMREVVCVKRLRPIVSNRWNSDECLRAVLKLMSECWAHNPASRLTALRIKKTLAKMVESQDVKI
BMP type I receptor ALK6, sequence (O00238 14-502): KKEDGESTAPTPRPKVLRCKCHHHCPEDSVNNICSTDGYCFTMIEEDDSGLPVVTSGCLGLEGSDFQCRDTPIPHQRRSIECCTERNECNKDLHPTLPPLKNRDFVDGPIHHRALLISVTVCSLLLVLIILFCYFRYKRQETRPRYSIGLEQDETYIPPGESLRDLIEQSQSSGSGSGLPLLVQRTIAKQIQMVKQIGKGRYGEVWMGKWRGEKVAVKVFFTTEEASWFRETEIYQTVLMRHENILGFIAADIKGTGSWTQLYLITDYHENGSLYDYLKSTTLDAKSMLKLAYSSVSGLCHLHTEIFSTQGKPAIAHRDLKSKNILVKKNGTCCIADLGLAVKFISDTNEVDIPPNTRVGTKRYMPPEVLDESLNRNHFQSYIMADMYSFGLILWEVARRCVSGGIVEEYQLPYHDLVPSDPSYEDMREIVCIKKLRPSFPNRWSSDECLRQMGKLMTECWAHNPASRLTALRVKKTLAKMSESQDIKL

| Compound | TGF-β-dependent epithelial-mesenchymal transition (EMT) [1] | fibrosis in lung (fibrosis in lung) | toxicity toward normal cells and tissues (normal cells and tissues) | Tgfbrl/ALK5 kinase activity (Tgfbrl/ALK5 kinase) | alkaline phosphatase (ALP) staining [2, 4] | effects of BMP-2 on osteoblastic differentiation [2, 4] | expression of ALP [2, 4] | expression of osterix (Osx) [2, 4] | synergism with BMP-2 ([2]; FIG. 7, ALP and Osx expression after 10 days) | inhibition of BMP type I receptor ALK3 (BMP type I receptor ALK3) | inhibition of BMP type I receptor ALK6 (BMP type I receptor ALK6) | inhibition of BMP type I receptor ALK2 (BMP type I receptor ALK2) | binding and activation of the receptors of BMPs (receptors of BMPs) | loaded peptide released [3] |
| --- | --- | --- | --- | --- | --- | --- | --- | --- | --- | --- | --- | --- | --- | --- |
| O=C(O[C@@H]1O[C@@H]2COC(=O)c3cc(O)c(O)c(O)c3-c3c(cc(O)c(O)c3O)C(=O)O[C@H]([C@H]1O)[C@@H]2O)c1cc(O)c(O)c(O)c1 [Corilagin] | inhibits | attenuates | low level | strongly inhibits | increased | potentiated | enhanced | enhanced | strong synergism | without inhibiting | without inhibiting | without inhibiting |  |  |
| KIPKASSVPTELSAISTLYL (BMP-2 peptide) [short-chain BMP-2 mimetic peptide (Genscript)] |  |  |  |  |  |  |  |  |  |  |  |  | binds and activates | Nearly all |
